Data taken from patent publication US20170290814A1, “METHODS OF TREATMENT OF CHOLESTASIS AND FIBROSIS” (GENFIT, priority 2016, published 2017).

Tests used:
Assay type in all cases: cell-based
[1] = tested on: TGFβ1-induced expression of α-SMA protein in NHLF; experiment: α-SMA ELISA in TGFβ1-activated normal human lung fibroblasts; conditions: TGFβ1 1 ng/ml, 48 h
Procedure: Serum-deprived NHLF were preincubated for 1 hour with RM-5061 before the activation with the profibrogenic cytokine TGFβ1 (1 ng/ml). After 48 hours of incubation, the expression of α-SMA was measured by ELISA. The obtained values were transformed into percentage inhibition over TGFβ1 control. Data are presented as mean (quadruplicates)±standard error of the mean (SEM). Statistical analyses were performed by kruskal-Wallis test followed by Dunn's multiple comparison tests, using GraphPad Prism 5.02 software. [*: p<0.05; **: p<0.01; ***: p<0.001 (comparison versus TGFβ1 1 ng/mL group)]. The curve fitting and the calculation of half maximal inhibitory concentration (IC50) were performed with XLFit software 5.3.1.3.
(§1) Cpd.5 was added to serum-deprived lung fibroblasts (NHLF) 1 hour before the activation with TGFβ1 (1 ng/ml). After 48 hours of incubation, the expression of α-SMA was measured by ELISA. The obtained values were transformed into percentage inhibition over TGFβ1 control. Data are presented as mean (triplicates)±standard deviation (SD). Statistical analyses were performed by one-way ANOVA followed by Bonferroni post-hoc tests, using Sigma Plot 11.0 software. [*: p<0.05; **: p<0.01; ***: p<0.001 (comparison versus TGFβ1 1 ng/mL group)].
The Normal Human Lung Fibroblasts (NHLF) (Lonza) were cultured in Fibroblast Basal Medium (FBM) (Lonza cat #CC-3131) that was supplemented with FGM-2 SingleQuots™ Kit (Lonza cat #CC-3132). The complete medium contains 2% fetal bovine serum. For the activation experiments with TGFβ1, the NHLF were plated at a density of 5×10^3 cells per well in 96-well plates. The next day, cell-culture medium was removed, and cells were washed with PBS (Invitrogen cat #14190). NHLF were deprived for 24 hours in serum-free, insulin-free and rhFGF-B-free medium. […]
(§2) The level of α-SMA was measured using a Sandwich ELISA. […]

[2] = tested on: TGFβ1-induced expression of α-SMA protein in human cardiac fibroblasts (NHCF); experiment: α-SMA ELISA in TGFβ1-activated normal human cardiac fibroblasts; conditions: TGFβ1 3 ng/ml, 48 h
Procedure: as §1, with “serum-deprived cardiac” for “serum-deprived lung”, “fibroblasts (NHCF)” for “fibroblasts (NHLF)”, “TGFβ1 (3” for “TGFβ1 (1”, “TGFβ1 3” for “TGFβ1 1”
The Normal Human Cardiac Fibroblasts (ventricle) (NHCF-V) (Lonza) were isolated from normal, adult heart tissue. Cells were cultured in Fibroblast Basal Medium (FBM) (Lonza cat #CC-3131) that was supplemented with FGM™-3 BulletKit™ kit (Lonza cat #CC-4525). The complete medium contains 10% fetal bovine serum. For the activation experiments with TGFβ1, the NHCF-V were plated at a density of 6×10^3 cells per well in 96-well plates. The next day, cell-culture medium was removed, and cells were washed with PBS (Invitrogen cat #14190). NHCF were deprived for 24 hours in serum-free, insulin-free and rhFGF-B-free medium. […]
as §2

[3] = tested on: TGFβ1-induced expression of α-SMA protein in human intestinal fibroblasts (InMyoFib); experiment: α-SMA ELISA in TGFβ1-activated human intestinal myofibroblasts; conditions: TGFβ1 3 ng/ml, 48 h
Procedure: as §1, with “serum-deprived intestinal” for “serum-deprived lung”, “fibroblasts (InMyoFib)” for “fibroblasts (NHLF)”, “TGFβ1 (3” for “TGFβ1 (1”, “TGFβ1 3” for “TGFβ1 1”
The Human Intestinal Myofibroblast (InMyoFib) (Lonza) were cultured in Smooth Muscle Cell Basal Medium (SmBM-2 TM) (Lonza cat #CC-3181) that was supplemented with SmGMTM-2 BulletKit TM (Lonza cat #CC-4149). The complete medium contains 5% fetal bovine serum. For the activation experiments with TGFβ1, the inMyoFib were plated at a density of 10×10^3 cells per well in 96-well plates. The next day, cell-culture medium was removed, and cells were washed with PBS (Invitrogen cat #14190). InMyoFib were deprived for 24 hours in serum-free, insulin-free and rhFGF-B-free medium. […]
as §2

| SMILES | effect on TGFβ1-induced α-SMA in NHLF [1] | effect on TGFβ1-induced α-SMA in human cardiac fibroblasts [2] | effect on TGFβ1-induced α-SMA in human intestinal fibroblasts [3] | IC50 α-SMA in NHLF ([1]; compared with IC50 in human HSC) |
| --- | --- | --- | --- | --- |
| [2H]C([2H])([2H])C(=O)Oc1ccccc1C(=O)Nc1ncc([N+](=O)[O-])s1 [Cpd.5, 2-[(5-nitro-1,3-thiazol-2-yl)carbamoyl]phenyl (d3)ethanoate] | inhibits | inhibits | inhibits |  |
| CC(C)(C)[C@H](N)C(=O)Oc1ccccc1C(=O)Nc1ncc([N+](=O)[O-])s1 [RM-5061, (S)-2-(5-nitrothiazol-2-ylcarbamoyl)phenyl 2-amino-3,3-dimethylbutanoate] | inhibits |  |  | comparable IC50 |
